# Source: ChEMBL document CHEMBL1671671, “Tooth-binding micelles for dental caries prevention” (Antimicrob Agents Chemother, 2009)
# Columns and labels:
# Streptococcus mutans [1] = assay: (§1) Antibacterial activity against Streptococcus mutans UA159 assessed as log decrease in bacterial count per biofilm recovered from hydroxyapatite disc using medium dose compound containing hydroxyapatite bound tooth-binding micelles formed from biocompatible pluronic copolymers modified with alendronat measured after 48 hrs post dose; format: functional
# Streptococcus mutans [2] = assay: Antibacterial activity against Streptococcus mutans UA159; format: functional
# [3] = Drug release from hydroxyapatite bound tooth-binding micelles formed from biocompatible pluronic copolymers modified with alendronat assessed as compound release into medium after 48 hrs; format: physicochemical
# Streptococcus mutans [4] = assay: as §1, with “low” for “medium”; format: functional
# Streptococcus mutans [5] = assay: as §1, with “high” for “medium”; format: functional
structure (smiles),measurement,setting,value
CC(C)=CCC/C(C)=C/CC/C(C)=C/CO [FARNESOL],FC,Streptococcus mutans [1],4
same,MIC,Streptococcus mutans [2],125 µM
same,Activity,[3],10%
same,FC,Streptococcus mutans [4],4
same,FC,Streptococcus mutans [5],4
